The values that follow come from patent US20040191842A1, “Chemopreventive and therapeutic aspects of polyphenolic compositions and assays” (Medical College of Georgia Research Institute, Inc., priority 2002, published 2004).

One series deals with MCF7 (C) cells. Description: Morphological analysis, MCF7(C) cells. Format: cell-based, human. Conditions: EGCG, 48 hours. An excerpt: Cell lines and cell culture. The normal human keratinocytes (NHEK CC-2507) were purchased from Cambrex (East Rutherford, N.J.) and maintained in KGM-2 medium (Cambrex). The OSC2 cell line was previously described (Osaki et al., Eur J Cancer B Oral Oncol 1994; 30 B:296-301). The breast carcinoma MCF7 cell line was purchased from American Type Culture Collection. The MCF7(C) caspase+cell line “7-3-28 ” was established and tested as previously described (Janicke et al., J Biol Chem 1998; 273:9357-60, Blanc et al., Cancer Res 2000; 60:4386-90). These tumor cells were maintained in 45% Dulbecco's Modified Eagle's Medium (DMEM), 45% Ham's F12 medium and 10% fetal calf serum, 100 I.U/ml penicillin, 100 μg/ml streptomycin and 5 μg/ml hydrocortisone. All cell cultures were maintained in a 37° C. incubator with 5% CO2. Light microscopic photographs were taken with a SPOT RT digital camera system (Diagnostic Instruments) linked to a Nikon Phase Contrast-2 microscope at an original magnification of 200×.

The subject of a further series is p57 (KIP2). Type of series: cell-based, human. As to the method: Cell treatments. For 24 hours treatments, exponentially growing cells with 40% confluency (to minimize differentiation and spontaneous apoptosis) were either maintained in 50 μM EGCG (2.29 mg/100 ml) or 0.2 mg/ml of GTPPs in tissue culture flasks (25 cm^2). Control flasks contained cells without any treatment. To test whether BaP or NNK interfere with the induction of p57, the human keratinocytes were treated with 0.12 μM BaP, or 10 μM NNK, either alone or in combination with 50 μM EGCG. To examine the time course of p57 induction, cells were treated with 50 μM EGCG and harvested for Western analysis at 30 minutes, 2 hours, 6 hours, and 24 hours. The human keratinocytes were treated when the cell density reached 85-90% confluency (to mimic the epithelium).
In a parallel series of experiments, treatment with EGCG was performed with 30 micrograms per milliliter (μg/ml) cycloheximide added to the keratinocyte media 30 minutes prior to the addition of EGCG. The dose-response experiments were performed using EGCG concentrations at 30, 50 100, and 200 μM in the culture media for 24 hours.
Western blot analysis. Cells from different treatment groups were lysed in RIPA buffer (1% NP-40, 1% sodium deoxycholate, 0.1% SDS, 0.15 M NaCl, 0.01 M sodium phosphate, pH 7.2, and 1% Trasylol) containing proteinase inhibitors (1 mM PMSF, 1 μg/ml each of aprotinin, leupeptin, and pepstatin). The concentration of protein in each sample was determined using the BioRad DC Protein Assay and spectrophotometry. Fifty micrograms (μg) of protein from each sample and a BioRad molecular weight standard marker were run on a 10% SDS-PAGE, followed by transfer to nitrocellulose membranes. Nonspecific binding to membranes was blocked with 10% nonfat milk. Specific primary polyclonal (rabbit) antibody against p57 and a horse radish peroxidase-conjugated goat anti-rabbit secondary antibody were used in conjunction with the ECL Chemiluminescence Kit and membranes were exposed to radiographic films for detection.

The subject of another series is SOD. Description: SOD activity assay in cell lysates. Format: cell-based, human. The following applies: 50 μM EGCG, 30 minutes; NHEK, OSC-2, OSC-4. As to the method:
Assays for SOD and catalase activities. Cells (1×10^6 cells/well) were incubated with or without EGCG (50 μM) in FilterCap 50 ml flasks (Nagel Nunc International, Rochester, N.Y.) for 30 minutes at 37° C. After the incubation, cells were harvested and disrupted in 100 μl of 10 mM Tris-HCl (pH 7.4) containing 0.1%(v/v) Triton X-100, 10 μg/ml leupeptin, 10 μg/ml pepstatin A and 100 mM phenylmethylsulfonyl fluoride by three cycles of freezing/thawing. After centrifugation at 17,000×g for 20 minutes at 4° C., the supernatants were used for SOD and catalase assays using the SOD Assay Kit-WST (Dojindo Molecular Technologies, Inc., Gaithersburg, Md.) and the AMPLEX Red Catalase Assay Kit (Molecular Probes), respectively. The activities of SOD and catalase were calibrated using a standard curve prepared with purified human SOD and catalase. The activities of SOD and catalase were expressed as units (U)/10^6 cells.
Assays for SOD and catalase activities. Cells (10^5 cells/well) were incubated with or without EGCG (50 μM) in 24-well culture plates for desirable time periods at 37° C. After the incubation, cells were harvested and disrupted in 100 μl of 10 mM Tris-HCl (pH 7.4) containing 0.1% (v/v) Triton ×-100, 10 μg/ml leupeptin, 10 μg/ml pepstatin A and 100 mM PMSF by three cycles of freezing/thawing. […] The activities of SOD and catalase were expressed as units (U)/10^6 cells.

In series [1] the test system is salivary acenar cells (AC) and duct cells (DC), HSG and OSC tumor cells. Description: Protection of salivary gland cells from CDDP and UVC (SDH, BrdU). Conditions: pretreatment of EGCG. An excerpt: Human immortalized salivary acenar cells (AC) and duct cells (DC), along with human salivary gland tumor cells (HSG, a radiation-resistant cell line) and oral squamous carcinoma cells (OSC) were either treated by CDDP or irradiated by UVC with or without the presence of EGCG, followed by determination of the mitochondrial succinate dehydrogenase (SDH) activity, a measurement of mitochondrial damage and BrdU incorporation determination.

For the next series, the system named is OSC-2 cells. Description: MTT assay (mitochondrial SDH activity), OSC2 (OSC-2) cells. The following applies: increasing EGCG and 0.2 mg/ml GTPPs, 24 hour. Background: Tetrazolium dyes change colour on reduction, which living cells bring about.

Experimental for OSC-2 cells: This method detects the activity of mitochondrial succinate dehydrogenase (SDH). In a 96-well plate, 1.5×10^4 cells were seeded in each well. After variety of treatments, 100 μl of 2% MTT was added to each well and the plate was incubated at 37° C. for 30 minutes. 100 μl of 0.2 M Tris (pH 7.7) with 4% formalin was added to each well. After incubation at room temperature for 5 minutes, liquid was removed and the wells were allowed to dry. Each well was rinsed with 200 μl water followed by addition of 100 μl DMSO (6.35% 0.1 N NaOH in DMSO) to each well. The coloration was measured by a Thermo MAX microplate reader (Molecular Devices Corp. Sunnyvale, Calif. using wavelengths of 562 nm. Experiments were repeated three times with triplicate samples for each experiment.
This method directly detects the activity of mitochondrial succinate dehydrogenase (SDH). Changes in SDH activity is a measurement of cell viability when stress is introduced in cell culture through chemical or physical means. Cells (1.5×10^4 cells/well) were seeded in a 96-well microplate and treated with the indicated doses of EGCG for 24 hours. After the treatment, the cells in each well were washed with 200 μl of phosphate-buffered saline (PBS), incubated with 100 μl of 2% MTT in a solution of 0.05 M Tris, 0.5 mM MgCl2, 2.5 mM CoCl2, and 0.25 M disodiumn succinate as substrate (Sigma) at 37° C. for 30 minutes. Cells were fixed in situ by the addition of 100 μl of 4% formalin in 0.2 M Tris (pH 7.7), and after a 5 minute incubation at room temperature liquid was removed and the wells were allowed to dry. Each well was rinsed with 200 μl water and cells were solubilized by the addition of 100 μl of 6.35% 0.1 N NaOH in DMSO. The colored formazan product was measured by a Thermo MAX micro plate reader (Molecular Devices Corp., Sunnyvale, Calif.) at a wavelength of 562 nm. […]
This method directly detects the activity of mitochondrial succinate dehydrogenase (SDH). […] Solubilized colored formazan product was measured using a Thermo MAX microplate reader (Molecular Devices Corp., Sunnyvale, Calif.) at a wavelength of 562 nm.

Take `O=C(O[C@@H]1Cc2c(O)cc(O)cc2O[C@@H]1c1cc(O)c(O)c(O)c1)c1cc(O)c(O)c(O)c1` [EGCG, (−)-epigallocatechin-3-gallate]: the morphology entry in the series on MCF7 (C) cells is “significantly reduced the cell number and produced cell blebbing”. In the series with p57 (KIP2) (50 μM EGCG or 0.2 mg/ml GTPPs, 24 h, 40% confluency), the p57 protein accumulation entry is “accumulated in normal human epithelial cells”. The “EGCG-stimulated p57 protein accumulation when BaP and NNK were present” value in the series with p57 (KIP2) (50 μM EGCG with 0.12 μM BaP or 10 μM NNK) is given as “still occurred”. Further, the “time of peak p57 expression” value in the series with p57 (KIP2) (50 μM EGCG, cell density 90%) amounted to 6 h. In the series with p57 (KIP2) (100 μM or 200 μM EGCG, 90% confluency), the “p57 levels over 24 hours” value is “remained high throughout the 24 hours period”. Besides, the SOD activity entry with SOD is given as “did not alter SOD activity”. Moreover, the “protection from CDDP and UVC cytotoxicity” value in series [1] is “significantly protected the normal salivary gland cells from CDDP and UVC, but not the tumor cells”. Also, the SDH activities entry with OSC-2 cells is recorded as “decreased”.
